Measured values published in ChEMBL document CHEMBL5724806, “Unraveling interindividual differences and functional consequences of gut microbial metabolism of immunosuppressants” (2024).

What was measured:
Assay type in all cases: ADME
[1] = The drug is tested on Bacteroides xylanisolvens strain: HM 722 for biotransformation under anaerobic condition. The drug concentrations were measured over 6 timepoints collected between 0 and 12 hours of incubation by liquid-chromatography-coupled mass spectrometry (LC–MS); design: dose 5 uM, timepoint 0, 1.5, 3, 6, 9, 12 hours; details: 5 µM
[2] = The drug is tested on the gut metagenome community of T-01 with ENA study accession number: PRJEB31790 for biotransformation under anaerobic condition. The drug concentrations were measured over 7 timepoints collected between 0 and 12 hours of incubation by liquid-chromatography-coupled mass spectrometry (LC–MS); design: dose 5 uM, timepoint 0, 0.75, 1.5, 3, 6, 9, 12 hours; details: 5 µM
[3] = The drug is tested on the gut metagenome community of A-01 with ENA study accession number: PRJEB31790 for biotransformation under anaerobic condition. The drug concentrations were measured over 7 timepoints collected between 0 and 12 hours of incubation by liquid-chromatography-coupled mass spectrometry (LC–MS); design: dose 5 uM, timepoint 0, 0.75, 1.5, 3, 6, 9, 12 hours; details: 5 µM
[4] = The drug is tested on Akkermansia muciniphila strain: DSM22959 for biotransformation under anaerobic condition. The drug concentrations were measured over 6 timepoints collected between 0 and 12 hours of incubation by liquid-chromatography-coupled mass spectrometry (LC–MS); design: dose 5 uM, timepoint 0, 1.5, 3, 6, 9, 12 hours; details: 5 µM
[5] = The drug is tested on Roseburia intestinalis strain: DSM14610 for biotransformation under anaerobic condition. The drug concentrations were measured over 6 timepoints collected between 0 and 12 hours of incubation by liquid-chromatography-coupled mass spectrometry (LC–MS); design: dose 5 uM, timepoint 0, 1.5, 3, 6, 9, 12 hours; details: 5 µM
[6] = The drug is tested on the gut metagenome community of P-01 with ENA study accession number: PRJEB31790 for biotransformation under microaerobic condition. The drug concentrations were measured over 7 timepoints collected between 0 and 12 hours of incubation by liquid-chromatography-coupled mass spectrometry (LC–MS); design: dose 5 uM, timepoint 0, 0.75, 1.5, 3, 6, 9, 12 hours; details: 5 µM
[7] = The drug is tested on Bacteroides ovatus strain: ATCC 8483 for biotransformation under anaerobic condition. The drug concentrations were measured over 6 timepoints collected between 0 and 12 hours of incubation by liquid-chromatography-coupled mass spectrometry (LC–MS); design: dose 5 uM, timepoint 0, 1.5, 3, 6, 9, 12 hours; details: 5 µM
[8] = The drug is tested on Streptococcus mitis strain: DSM12643 for biotransformation under anaerobic condition. The drug concentrations were measured over 6 timepoints collected between 0 and 12 hours of incubation by liquid-chromatography-coupled mass spectrometry (LC–MS); design: dose 5 uM, timepoint 0, 1.5, 3, 6, 9, 12 hours; details: 5 µM
[9] = The drug is tested on the gut metagenome community of A-09 with ENA study accession number: PRJEB31790 for biotransformation under anaerobic condition. The drug concentrations were measured over 7 timepoints collected between 0 and 12 hours of incubation by liquid-chromatography-coupled mass spectrometry (LC–MS); design: dose 5 uM, timepoint 0, 0.75, 1.5, 3, 6, 9, 12 hours; details: 5 µM
[10] = The drug is tested on the gut metagenome community of A-10 with ENA study accession number: PRJEB31790 for biotransformation under anaerobic condition. The drug concentrations were measured over 7 timepoints collected between 0 and 12 hours of incubation by liquid-chromatography-coupled mass spectrometry (LC–MS); design: dose 5 uM, timepoint 0, 0.75, 1.5, 3, 6, 9, 12 hours; details: 5 µM
[11] = The drug is tested on Alloscardovia omnicolens strain: DSM21503 for biotransformation under anaerobic condition. The drug concentrations were measured over 6 timepoints collected between 0 and 12 hours of incubation by liquid-chromatography-coupled mass spectrometry (LC–MS); design: dose 5 uM, timepoint 0, 1.5, 3, 6, 9, 12 hours; details: 5 µM
[12] = The drug is tested on the gut metagenome community of T-04 with ENA study accession number: PRJEB31790 for biotransformation under microaerobic condition. The drug concentrations were measured over 7 timepoints collected between 0 and 12 hours of incubation by liquid-chromatography-coupled mass spectrometry (LC–MS); design: dose 5 uM, timepoint 0, 0.75, 1.5, 3, 6, 9, 12 hours; details: 5 µM
[13] = The drug is tested on Bacteroides uniformis strain: DSM6597 for biotransformation under anaerobic condition. The drug concentrations were measured over 6 timepoints collected between 0 and 12 hours of incubation by liquid-chromatography-coupled mass spectrometry (LC–MS); design: dose 5 uM, timepoint 0, 1.5, 3, 6, 9, 12 hours; details: 5 µM
[14] = The drug is tested on Lactobacillus ruminis strain: ATCC25644 for biotransformation under anaerobic condition. The drug concentrations were measured over 6 timepoints collected between 0 and 12 hours of incubation by liquid-chromatography-coupled mass spectrometry (LC–MS); design: dose 5 uM, timepoint 0, 1.5, 3, 6, 9, 12 hours; details: ligilactobacillus ruminis, 5 µM
[15] = The drug is tested on Faecalibacterium prausnitzii strain: DSM17677 for biotransformation under anaerobic condition. The drug concentrations were measured over 6 timepoints collected between 0 and 12 hours of incubation by liquid-chromatography-coupled mass spectrometry (LC–MS); design: dose 5 uM, timepoint 0, 1.5, 3, 6, 9, 12 hours; details: faecalibacterium duncaniae, 5 µM
[16] = The drug is tested on the gut metagenome community of T-05 with ENA study accession number: PRJEB31790 for biotransformation under microaerobic condition. The drug concentrations were measured over 7 timepoints collected between 0 and 12 hours of incubation by liquid-chromatography-coupled mass spectrometry (LC–MS); design: dose 5 uM, timepoint 0, 0.75, 1.5, 3, 6, 9, 12 hours; details: 5 µM
[17] = The drug is tested on the gut metagenome community of A-04 with ENA study accession number: PRJEB31790 for biotransformation under microaerobic condition. The drug concentrations were measured over 7 timepoints collected between 0 and 12 hours of incubation by liquid-chromatography-coupled mass spectrometry (LC–MS); design: dose 5 uM, timepoint 0, 0.75, 1.5, 3, 6, 9, 12 hours; details: 5 µM
[18] = The drug is tested on the gut metagenome community of A-03 with ENA study accession number: PRJEB31790 for biotransformation under anaerobic condition. The drug concentrations were measured over 7 timepoints collected between 0 and 12 hours of incubation by liquid-chromatography-coupled mass spectrometry (LC–MS); design: dose 5 uM, timepoint 0, 0.75, 1.5, 3, 6, 9, 12 hours; details: 5 µM
[19] = The drug is tested on the gut metagenome community of A-08 with ENA study accession number: PRJEB31790 for biotransformation under microaerobic condition. The drug concentrations were measured over 7 timepoints collected between 0 and 12 hours of incubation by liquid-chromatography-coupled mass spectrometry (LC–MS); design: dose 5 uM, timepoint 0, 0.75, 1.5, 3, 6, 9, 12 hours; details: 5 µM
[20] = The drug is tested on the gut metagenome community of A-03 with ENA study accession number: PRJEB31790 for biotransformation under microaerobic condition. The drug concentrations were measured over 7 timepoints collected between 0 and 12 hours of incubation by liquid-chromatography-coupled mass spectrometry (LC–MS); design: dose 5 uM, timepoint 0, 0.75, 1.5, 3, 6, 9, 12 hours; details: 5 µM
[21] = The drug is tested on Actinomyces naeslundi strain: DSM43013 for biotransformation under anaerobic condition. The drug concentrations were measured over 6 timepoints collected between 0 and 12 hours of incubation by liquid-chromatography-coupled mass spectrometry (LC–MS); design: dose 5 uM, timepoint 0, 1.5, 3, 6, 9, 12 hours; details: actinomyces naeslundii, 5 µM
[22] = The drug is tested on Bacteroides vulgatus strain: DSM1447 for biotransformation under anaerobic condition. The drug concentrations were measured over 6 timepoints collected between 0 and 12 hours of incubation by liquid-chromatography-coupled mass spectrometry (LC–MS); design: dose 5 uM, timepoint 0, 1.5, 3, 6, 9, 12 hours; details: phocaeicola vulgatus, 5 µM
[23] = The drug is tested on Eubacterium hallii strain: DSM3353 for biotransformation under anaerobic condition. The drug concentrations were measured over 6 timepoints collected between 0 and 12 hours of incubation by liquid-chromatography-coupled mass spectrometry (LC–MS); design: dose 5 uM, timepoint 0, 1.5, 3, 6, 9, 12 hours; details: anaerobutyricum hallii, 5 µM
[24] = The drug is tested on Lactobacillus ruminis strain: ATCC25644 for biotransformation under microaerobic condition. The drug concentrations were measured over 6 timepoints collected between 0 and 12 hours of incubation by liquid-chromatography-coupled mass spectrometry (LC–MS); design: dose 5 uM, timepoint 0, 1.5, 3, 6, 9, 12 hours; details: ligilactobacillus ruminis, 5 µM

Compound | Bacterial Biotransformation [1] | Bacterial Biotransformation [2] | Bacterial Biotransformation [3] | Bacterial Biotransformation [4] | Bacterial Biotransformation [5] | Bacterial Biotransformation [6] | Bacterial Biotransformation [7] | Bacterial Biotransformation [8] | Bacterial Biotransformation [9] | Bacterial Biotransformation [10] | Bacterial Biotransformation [11] | Bacterial Biotransformation [12] | Bacterial Biotransformation [13] | Bacterial Biotransformation [14] | Bacterial Biotransformation [15] | Bacterial Biotransformation [16] | Bacterial Biotransformation [17] | Bacterial Biotransformation [18] | Bacterial Biotransformation [19] | Bacterial Biotransformation [20] | also measured
C[C@]12C=CC(=O)C=C1CC[C@@H]1[C@@H]2[C@@H](O)C[C@@]2(C)[C@H]1CC[C@]2(O)C(=O)CO [PREDNISOLONE] | Compound NOT metabolized | Compound NOT metabolized | Compound metabolized | Compound NOT metabolized | Compound NOT metabolized | Compound metabolized | Compound NOT metabolized | Compound NOT metabolized | Compound metabolized | Compound metabolized | Compound NOT metabolized | Compound NOT metabolized | Compound NOT metabolized | Compound NOT metabolized | Compound NOT metabolized | Compound NOT metabolized | Compound metabolized | Compound metabolized | Compound metabolized | Compound metabolized | Bacterial Biotransformation [21]: Compound NOT metabolized; Bacterial Biotransformation [22]: Compound NOT metabolized; Bacterial Biotransformation [23]: Compound NOT metabolized; Bacterial Biotransformation [24]: Compound NOT metabolized
C[C@]12C=CC(=O)C=C1CC[C@@H]1[C@@H]2C(=O)C[C@@]2(C)[C@H]1CC[C@]2(O)C(=O)CO [PREDNISONE] | Compound NOT metabolized | Compound metabolized | Compound metabolized | Compound metabolized | Compound NOT metabolized | Compound metabolized | Compound NOT metabolized | Compound NOT metabolized | Compound metabolized | Compound metabolized | Compound NOT metabolized | Compound NOT metabolized | Compound NOT metabolized | Compound NOT metabolized | Compound metabolized | Compound metabolized | Compound metabolized | Compound metabolized | Compound metabolized | Compound metabolized | Bacterial Biotransformation [21]: Compound NOT metabolized; Bacterial Biotransformation [22]: Compound NOT metabolized; Bacterial Biotransformation [23]: Compound NOT metabolized; Bacterial Biotransformation [24]: Compound NOT metabolized
CNC(=C[N+](=O)[O-])NCCSCc1ccc(CN(C)C)o1 [RANITIDINE] | Compound metabolized | Compound NOT metabolized | Compound NOT metabolized | Compound NOT metabolized | Compound NOT metabolized | Compound metabolized | Compound metabolized | Compound NOT metabolized | Compound metabolized | Compound NOT metabolized | Compound NOT metabolized | Compound NOT metabolized | Compound NOT metabolized | Compound NOT metabolized | Compound NOT metabolized | Compound NOT metabolized | Compound metabolized | Compound metabolized | Compound metabolized | Compound NOT metabolized | Bacterial Biotransformation [21]: Compound NOT metabolized; Bacterial Biotransformation [22]: Compound NOT metabolized; Bacterial Biotransformation [23]: Compound NOT metabolized; Bacterial Biotransformation [24]: Compound NOT metabolized
